Marks after values point to notes of the source that are not given here.
Key:
[1] = tested on: healthy subjects; experiment: Maximum MA4 heart rate in multiple-dose Phase 1 study; assay type: in vivo, human; settings: Day 14
Procedure: More intensive assessments of heart rate and blood pressure were performed in healthy volunteers in several Phase 1 studies. […] Doses ranged from 25 to 400 mg once daily for 7 to 28 days depending on the cohort. Least squares mean and 90% confidence intervals of maximum change from baseline in moving average of heart rate over 4 hours postdose (MA4 HR) are presented in Table 17.

[2] = Multiple rising dose Phase 1 pharmacokinetics; assay type: in vivo, human
Text: The steady state AUC geometric mean accumulation ratios were ˜2 in young male subjects and ˜2.8 in elderly subjects (male and female).
Although exposures were similar in middle-aged males when compared to young males, plasma concentrations were higher in elderly compared to middle-aged and young subjects. […] Furthermore, the steady state AUC geometric mean accumulation ratios were ˜2 in young males and ˜2.8 in the elderly.

[3] = Plasma protein binding; assay type: in vitro ADME; settings: human, plasma
[4] = tested on: human plasma proteins; experiment: Plasma protein binding; assay type: in vitro ADME
[5] = Effect of food on oral absorption; assay type: in vivo, human; settings: for mean AUC0-24 with food compared to fasted state / mean Cmax with food compared to fasted state: 150 mg multiple doses, middle-aged and elderly females
[6] = target: β3-AR (Homo sapiens, UniProt P13945)
[7] = Relative bioequivalence of aqueous and non-aqueous tablet; assay type: in vivo, human; settings: 50 mg
Text: An open-label, single-dose, randomized, two-period, two-treatment, two-sequence, crossover Phase 1 study evaluated the relative bioequivalence of two types of tablets with slightly different composition: aqueous tablet (test) and non-aqueous tablet (reference).

[8] = target: CYP3A4 (Homo sapiens, UniProt P08684); experiment: In vitro CYP metabolism; assay type: in vitro ADME
[9] = tested on: QTc interval; settings: human, in vivo, 400 mg
[10] = elderly female subjects, 100 mg
[11] = multiple dose 25 mg, after 14 days, healthy young males
[12] = multiple dose 50 mg, after 14 days, Japanese healthy young males
[13] = multiple dose 50 mg, after 14 days, healthy young males
[14] = multiple dose 100 mg, after 14 days, Japanese healthy young males
[15] = multiple dose 100 mg, after 14 days, elderly Japanese
[16] = multiple dose 100 mg, after 14 days, elderly male and female
[17] = multiple dose 100 mg, after 14 days, healthy young males
[18] = multiple dose 150 mg, after 14 days, healthy young males
[19] = multiple dose 150 mg, after 14 days, middle-aged female
[20] = multiple dose 150 mg, after 14 days, middle-aged male
[21] = multiple dose 200 mg, after 14 days, Japanese healthy young males
[22] = multiple dose 200 mg, after 14 days, healthy young males
[23] = multiple dose 300 mg, after 14 days, healthy young males
[24] = multiple dose 400 mg, after 14 days, healthy young males
[25] = 50 mg with high-fat meal, non-Japanese young males
[26] = 50 mg with standard Japanese breakfast, Japanese young males
[27] = 150 mg multiple doses with food, middle-aged females, Day 14
[28] = multiple dose 150 mg, day 14, non-Japanese middle-aged females, fasted

β3-AR, sequence (P13945 whole entry): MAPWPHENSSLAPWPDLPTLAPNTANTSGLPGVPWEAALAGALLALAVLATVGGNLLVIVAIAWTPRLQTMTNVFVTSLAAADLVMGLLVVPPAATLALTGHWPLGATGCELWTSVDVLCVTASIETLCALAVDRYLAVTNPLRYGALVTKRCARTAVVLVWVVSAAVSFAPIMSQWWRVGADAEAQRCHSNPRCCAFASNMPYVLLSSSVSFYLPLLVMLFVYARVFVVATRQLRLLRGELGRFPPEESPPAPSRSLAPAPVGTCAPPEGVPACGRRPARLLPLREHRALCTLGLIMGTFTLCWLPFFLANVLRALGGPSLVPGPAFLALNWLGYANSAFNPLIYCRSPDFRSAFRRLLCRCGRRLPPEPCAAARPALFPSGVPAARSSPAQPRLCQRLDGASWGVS
CYP3A4, sequence (P08684 whole entry): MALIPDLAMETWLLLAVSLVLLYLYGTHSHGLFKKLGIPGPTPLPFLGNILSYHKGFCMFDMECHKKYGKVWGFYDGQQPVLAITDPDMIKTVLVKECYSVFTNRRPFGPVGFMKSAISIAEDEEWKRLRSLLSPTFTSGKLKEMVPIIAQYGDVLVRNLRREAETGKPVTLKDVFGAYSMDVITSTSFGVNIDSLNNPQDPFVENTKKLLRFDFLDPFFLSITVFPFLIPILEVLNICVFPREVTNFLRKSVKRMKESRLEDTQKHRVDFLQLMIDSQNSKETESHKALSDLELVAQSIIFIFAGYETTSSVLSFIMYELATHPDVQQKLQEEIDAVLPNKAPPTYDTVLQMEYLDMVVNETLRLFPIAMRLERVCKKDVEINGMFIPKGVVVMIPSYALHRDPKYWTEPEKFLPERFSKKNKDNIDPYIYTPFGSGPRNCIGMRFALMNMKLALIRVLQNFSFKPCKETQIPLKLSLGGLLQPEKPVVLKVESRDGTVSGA

Q: For O=C(Nc1ccc(C[C@@H]2CC[C@H]([C@H](O)c3ccccc3)N2)cc1)[C@@H]1CCc2nccc(=O)n21 [Vibegron, (6S)—N-[4-[[(2S,5R)-5-[(R)-hydroxy(phenyl)methyl]pyrrolidin-2-yl]methyl]phenyl]-4-oxo-7,8-dihydro-6H-pyrrolo[1,2-a]pyrimidine-6-carboxamide], which “Maximum MA4 HR difference from placebo (90% CI)” value ([1]; 25 mg once daily) is on record?
A: −1.60 (−7.09, 3.88) bpm

Q: What about the “Maximum MA4 HR, LS mean (90% CI)” value ([1]; 25 mg once daily) of the same molecule?
A: 1.47 (−3.24, 6.17) bpm

Q: And the “Maximum MA4 HR difference from placebo (90% CI)” value ([1]; 50 mg once daily)?
A: −1.57 (−6.70, 3.56) bpm

Q: What about the “Maximum MA4 HR, LS mean (90% CI)” value ([1]; 50 mg once daily) of the same molecule?
A: 1.50 (−2.79, 5.79) bpm

Q: What about the “Maximum MA4 HR, LS mean (90% CI)” value ([1]; 100 mg once daily) of the same molecule?
A: 3.28 (−1.02, 7.57) bpm

Q: And the “Maximum MA4 HR difference from placebo (90% CI)” value ([1]; 150 mg once daily)?
A: 0.10 (−5.04, 5.23) bpm

Q: What about the “Maximum MA4 HR, LS mean (90% CI)” value ([1]; 150 mg once daily) of the same molecule?
A: 3.17 (−1.13, 7.46) bpm

Q: What about the “Maximum MA4 HR difference from placebo (90% CI)” value ([1]; 200 mg once daily) of the same molecule?
A: 2.60 (−2.89, 8.08) bpm

Q: What about the “Maximum MA4 HR, LS mean (90% CI)” value ([1]; 200 mg once daily) of the same molecule?
A: 5.67 (0.96, 10.37) bpm

Q: And the “Maximum MA4 HR difference from placebo (90% CI)” value ([1]; 300 mg once daily)?
A: 5.98 (0.85, 11.12) bpm

Q: And the “Maximum MA4 HR, LS mean (90% CI)” value ([1]; 300 mg once daily)?
A: 9.06 (4.76, 13.35) bpm

Q: And the “Maximum MA4 HR difference from placebo (90% CI)” value ([1]; 400 mg once daily)?
A: 7.26 (2.13, 12.39) bpm

Q: And the “Maximum MA4 HR, LS mean (90% CI)” value ([1]; 400 mg once daily)?
A: 10.33 (6.04, 14.63) bpm

Q: And the “steady state Cmax, elderly compared to young males” value ([2]; 100 mg QD)?
A: ~1.3 fold

Q: And the “fe0-24 hr,ss” value ([2]; 100 mg, elderly subjects)?
A: ~17%

Q: What about the “fe0-24 hr,ss” value ([2]; 100 and 150 mg, young males) of the same molecule?
A: ~14%

Q: What about the “steady state AUC higher in middle-aged females vs middle-aged males” value ([2]; 100 or 150 mg) of the same molecule?
A: ~1.5 fold

Q: What about the “steady state exposure (AUC0-24) higher in elderly Japanese vs elderly non-Japanese” value ([2]; Day 14) of the same molecule?
A: 35%

Q: And the “steady state AUC0-24 hr” value [2, 10]?
A: 2620 ng·h/mL

Q: What about the “steady state Cmax” value [2, 10] of the same molecule?
A: 278 ng/mL

Q: And the “renal clearance (CLR) at steady state” value ([2]; elderly subjects (male and female))?
A: 127 mL/min

Q: What about the AUC0-24 ([2]; human, plasma, oral, multiple dose 150 mg, after 14 days, middle-aged female, read-out: AUC0-24) of the same molecule?
A: 3180 ± 925 ng·h/mL

Q: And the “steady state exposures higher in Japanese vs non-Japanese young males” value ([2]; multiple dose)?
A: ~30%

Q: And the AUC0-24 [2, 11]?
A: 164 ± 25.9 ng·h/mL

Q: What about the Cmax [2, 11] of the same molecule?
A: 15.6 ± 6.93 ng/mL

Q: And the “t1/2 (harmonic mean ± pseudo SD)” value [2, 11]?
A: 94.0 ± 9.60 h

Q: And the AUC0-24 [2, 12]?
A: 613 ± 296 ng·h/mL

Q: What about the Cmax [2, 12] of the same molecule?
A: 56.9 ± 34.2 ng/mL

Q: And the “t1/2 (harmonic mean ± pseudo SD)” value [2, 12]?
A: 69.4 ± 6.6 h

Q: What about the AUC0-24 [2, 13] of the same molecule?
A: 507 ± 176 ng·h/mL

Q: What about the Cmax [2, 13] of the same molecule?
A: 41.5 ± 12.3 ng/mL

Q: What about the Ctrough [2, 13] of the same molecule?
A: 15.2 ± 5.07 ng/mL

Q: And the “t1/2 (harmonic mean ± pseudo SD)” value [2, 13]?
A: 77.2 ± 8.9 h

Q: What about the AUC0-24 [2, 14] of the same molecule?
A: 1710 ± 542 ng·h/mL

Q: What about the “t1/2 (harmonic mean ± pseudo SD)” value [2, 14] of the same molecule?
A: 56.8 ± 19.2 h

Q: What about the AUC0-24 [2, 15] of the same molecule?
A: 2920 ± 693 ng·h/mL

Q: What about the “t1/2 (harmonic mean ± pseudo SD)” value [2, 15] of the same molecule?
A: 75.1 ± 3.9 h

Q: And the AUC0-24 [2, 16]?
A: 2230 ± 671 ng·h/mL

Q: And the Cmax [2, 16]?
A: 224 ± 92.0 ng/mL

Q: What about the Ctrough [2, 16] of the same molecule?
A: 54.2 ± 15.3 ng/mL

Q: And the “t1/2 (harmonic mean ± pseudo SD)” value [2, 16]?
A: 88.4 ± 10.7 h

Q: What about the AUC0-24 [2, 17] of the same molecule?
A: 1280 ± 529 ng·h/mL

Q: What about the Cmax [2, 17] of the same molecule?
A: 169 ± 80.9 ng/mL

Q: What about the Ctrough [2, 17] of the same molecule?
A: 31.9 ± 11.5 ng/mL

Q: And the “t1/2 (harmonic mean ± pseudo SD)” value [2, 17]?
A: 79.7 ± 11.5 h

Q: What about the AUC0-24 [2, 18] of the same molecule?
A: 2285 ± 1140 ng·h/mL

Q: And the Cmax [2, 18]?
A: 305 ± 215 ng/mL

Q: What about the “t1/2 (harmonic mean ± pseudo SD)” value [2, 18] of the same molecule?
A: 79.2 ± 9.2 h

Q: What about the Cmax [2, 19] of the same molecule?
A: 246 ± 139 ng/mL

Q: And the “t1/2 (harmonic mean ± pseudo SD)” value [2, 19]?
A: 83.1 ± 17.2 h

Q: What about the AUC0-24 [2, 20] of the same molecule?
A: 2170 ± 452 ng·h/mL

Q: What about the Cmax [2, 20] of the same molecule?
A: 293 ± 67.1 ng/mL

Q: What about the “t1/2 (harmonic mean ± pseudo SD)” value ([2]; multiple dose 150 mg, middle-aged male, determined after 28 days of dosing) of the same molecule?
A: 72.7 ± 16.1^d hr

Q: What about the AUC0-24 [2, 21] of the same molecule?
A: 4370 ± 618 ng·h/mL

Q: And the Cmax [2, 21]?
A: 631 ± 154 ng/mL

Q: What about the “t1/2 (harmonic mean ± pseudo SD)” value [2, 21] of the same molecule?
A: 59.5 ± 1.9 h

Q: And the AUC0-24 [2, 22]?
A: 3200 ± 1120 ng·h/mL

Q: What about the Cmax [2, 22] of the same molecule?
A: 313 ± 168 ng/mL

Q: What about the “t1/2 (harmonic mean ± pseudo SD)” value [2, 22] of the same molecule?
A: 64.7 ± 6.5 h

Q: What about the AUC0-24 [2, 23] of the same molecule?
A: 6980 ± 1040 ng·h/mL

Q: What about the “t1/2 (harmonic mean ± pseudo SD)” value [2, 23] of the same molecule?
A: 61.7 ± 7.3 h

Q: And the AUC0-24 [2, 24]?
A: 10500 ± 2140 ng·h/mL

Q: And the Cmax [2, 24]?
A: 1400 ± 257 ng/mL

Q: And the “t1/2 (harmonic mean ± pseudo SD)” value [2, 24]?
A: 58.9 ± 5.9 h

Q: And the “time to steady state concentrations” value ([2]; once daily dosing)?
A: ≤ 7 days

Q: And the “higher exposures (AUC) in females compared with males” value ([2]; regardless of age)?
A: 50%

Q: And the “Cmax increased in elderly Japanese vs elderly non-Japanese” value ([2]; steady state)?
A: 82%

Q: What about the fraction unbound [3] of the same molecule?
A: 0.49

Q: What about the “bound to human plasma proteins” value [4] of the same molecule?
A: approximately 49%

Q: What about the “delay in Tmax vs fasted” value [5, 25] of the same molecule?
A: ~1 h

Q: What about the “reduction in AUC0-inf vs fasted” value [5, 25] of the same molecule?
A: 46%

Q: What about the “reduction in Cmax vs fasted” value [5, 25] of the same molecule?
A: 67%

Q: And the “reduction in AUC0-inf vs fasted” value [5, 26]?
A: 37%

Q: What about the “reduction in Cmax vs fasted” value [5, 26] of the same molecule?
A: 52%

Q: What about the “reduction in mean AUC0-24 hr vs fasted” value [5, 27] of the same molecule?
A: 20%

Q: What about the “reduction in mean Cmax vs fasted” value [5, 27] of the same molecule?
A: 47%

Q: And the “mean AUC0-24 with food compared to fasted state” value ([5]; Day 1)?
A: ~42%

Q: What about the “mean Cmax with food compared to fasted state” value ([5]; Day 1) of the same molecule?
A: 59%

Q: What about the “mean AUC0-24 with food compared to fasted state” value ([5]; Day 14) of the same molecule?
A: ~20%

Q: And the “mean Cmax with food compared to fasted state” value ([5]; Day 14)?
A: 43%

Q: What about the AUC0-24 [5, 28] of the same molecule?
A: 3180 ± 925 ng·h/mL

Q: What about the Cmax [5, 28] of the same molecule?
A: 346 ± 139 ng/mL

Q: What about the Ctrough [5, 28] of the same molecule?
A: 62.7 ± 12.4 ng/mL

Q: And the “β3-AR IC50” value [6]?
A: 0.086 µg/mL

Q: What about the “AUC0-inf GMR test to reference tablet” value [7] of the same molecule?
A: 100.2%

Q: What about the “Cmax GMR test to reference tablet” value [7] of the same molecule?
A: 107.7%

Q: What about the “CYP responsible for in vitro metabolism” value [8] of the same molecule?
A: CYP3A4 is the predominant CYP responsible for in vitro metabolism

Q: And the “AUC, mean ± SD” value [9]?
A: 6800 ± 2300 ng·h/mL
